Test results as given in US7067619B2, “Integrin-binding peptides” (La Jolla Cancer Research Foundation, priority 1993, dated 2006).
Bridge positions count the residues as written; N and C are the ends. Ends that are not written are not given here. Peptide text beside a SMILES is read from it.

How the values were obtained:
α5β1 integrin [1] = assay: Inhibition of α5β1-mediated cell attachment to fibronectin; assay type: cell-based, human
Description: (§1) Cell lines expressing different integrins were used to examine peptide inhibition of integrin function. A human melanoma cell line, C8161, a fibroblast cell line, WI-38, and an osteosarcoma cell line, MG-63 (described by Seftor et al., Canc. Res., 53:3411–3415 (1993); Vogel et al., J. Biol. Chem., 265:5934–5937 (1990); and Pytela et al. (1985), supra, respectively, each of which is incorporated herein by reference) attach to fibronectin through α5β1 integrin, as does B2/α27, a CHO cell line transfected with human α5. B2/C1, the control parental CHO line (Bauer et al., J. Cell. Biol. 116:477–487 (1992), which is incorporated herein by reference), attaches via […]. CHO cells C11 and NIH 3T3 cells express the endogenous Chinese hamster and mouse α5β1 integrins, respectively. The human melanoma cells, A375-M, attach to fibronectin through both α5β1 and α4β1 integrins (Mould et al., J. Biol. Chem. 265:4020–4024 (1990), which is incorporated herein by reference). CHO cell line B2/v7 express the αvβ1 integrin (Zhang et al., J. Cell. Biol. 122:235–242 (1993), which is incorporated herein by reference). The vitronectin-binding integrins αvβ1 and αvβ3 were assayed using the cell line HT-29 and IMR-90, respectively (Koivunen et al., J. Biol. Chem. 268: 20205–20210 (1993)).
Cell lines expressing fibronectin-binding integrins were used to determine peptide activities against these integrins in the cell attachment assay described by Ruoslahti et al., Meth. Enzymol., 144:803–831 (1982), which is incorporated herein by reference. Human plasma fibronectin was iodinated as described by Morla and Ruoslahti, J. Cell Biol., 118:421–429 (1992), which is incorporated herein by reference. Vitronectin was obtained from Telios Pharmaceuticals (San Diego, Calif.). […] Peptide was coated on plastic by incubating at 37° C. for 2 hours in phosphate buffered saline containing 0.25% glutaraldehyde to crosslink the peptide. Free binding sites on the plastic were blocked using BSA. Approximately 1×10^5 cells per well were allowed to attach for 1 hour in the presence or absence of competing peptides. Bound cells were quantitated by staining with 0.1% amido black.
Inhibition of cell attachment mediated by either fibronectin- or vitronectin-binding integrins was performed to determine peptide specificity in a biologically relevant system. The assays and cell lines were performed as described above. FIGS. 5 and 6 show the results of cell attachment mediated by the fibronectin binding integrins α5β1 and αvβ1.

αvβ3 integrin [2] = target: T1, αvβ3 integrin (Homo sapiens, UniProt P05106+P06756); assay: Inhibition of αvβ3-mediated attachment of IMR-90 cells to vitronectin; assay type: cell-based; parameters: endogenous in cells; host or cells: IMR-90 cells
T1 sequence (P06756 31-889 limits assumed): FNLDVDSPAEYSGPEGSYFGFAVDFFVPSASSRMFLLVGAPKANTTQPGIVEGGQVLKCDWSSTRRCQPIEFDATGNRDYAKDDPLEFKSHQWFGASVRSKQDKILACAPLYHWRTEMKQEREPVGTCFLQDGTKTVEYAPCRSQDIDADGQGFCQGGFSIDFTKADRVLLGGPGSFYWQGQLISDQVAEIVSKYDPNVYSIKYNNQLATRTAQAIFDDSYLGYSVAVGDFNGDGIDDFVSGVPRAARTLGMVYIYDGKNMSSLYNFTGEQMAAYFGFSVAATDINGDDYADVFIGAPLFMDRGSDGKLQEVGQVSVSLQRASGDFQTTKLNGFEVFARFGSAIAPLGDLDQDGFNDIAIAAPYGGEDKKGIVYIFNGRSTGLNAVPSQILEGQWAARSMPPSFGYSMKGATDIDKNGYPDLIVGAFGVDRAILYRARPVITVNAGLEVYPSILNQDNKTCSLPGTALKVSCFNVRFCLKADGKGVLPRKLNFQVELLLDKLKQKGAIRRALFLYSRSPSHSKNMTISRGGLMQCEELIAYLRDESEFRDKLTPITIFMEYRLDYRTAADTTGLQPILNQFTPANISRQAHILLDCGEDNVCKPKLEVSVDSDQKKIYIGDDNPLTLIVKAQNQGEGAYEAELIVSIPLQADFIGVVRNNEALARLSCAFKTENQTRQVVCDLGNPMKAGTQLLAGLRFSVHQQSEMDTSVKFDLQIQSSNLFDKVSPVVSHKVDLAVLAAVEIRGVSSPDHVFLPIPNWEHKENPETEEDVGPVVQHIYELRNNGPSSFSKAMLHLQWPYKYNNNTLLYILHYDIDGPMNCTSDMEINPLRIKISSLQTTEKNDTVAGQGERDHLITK
T1 sequence (P06756 891-1048 partner limits assumed): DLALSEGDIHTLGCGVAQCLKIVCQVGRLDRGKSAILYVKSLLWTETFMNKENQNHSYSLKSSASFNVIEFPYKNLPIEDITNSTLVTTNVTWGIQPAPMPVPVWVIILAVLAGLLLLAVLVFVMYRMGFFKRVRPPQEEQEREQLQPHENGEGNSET
T1 sequence (P05106 27-788): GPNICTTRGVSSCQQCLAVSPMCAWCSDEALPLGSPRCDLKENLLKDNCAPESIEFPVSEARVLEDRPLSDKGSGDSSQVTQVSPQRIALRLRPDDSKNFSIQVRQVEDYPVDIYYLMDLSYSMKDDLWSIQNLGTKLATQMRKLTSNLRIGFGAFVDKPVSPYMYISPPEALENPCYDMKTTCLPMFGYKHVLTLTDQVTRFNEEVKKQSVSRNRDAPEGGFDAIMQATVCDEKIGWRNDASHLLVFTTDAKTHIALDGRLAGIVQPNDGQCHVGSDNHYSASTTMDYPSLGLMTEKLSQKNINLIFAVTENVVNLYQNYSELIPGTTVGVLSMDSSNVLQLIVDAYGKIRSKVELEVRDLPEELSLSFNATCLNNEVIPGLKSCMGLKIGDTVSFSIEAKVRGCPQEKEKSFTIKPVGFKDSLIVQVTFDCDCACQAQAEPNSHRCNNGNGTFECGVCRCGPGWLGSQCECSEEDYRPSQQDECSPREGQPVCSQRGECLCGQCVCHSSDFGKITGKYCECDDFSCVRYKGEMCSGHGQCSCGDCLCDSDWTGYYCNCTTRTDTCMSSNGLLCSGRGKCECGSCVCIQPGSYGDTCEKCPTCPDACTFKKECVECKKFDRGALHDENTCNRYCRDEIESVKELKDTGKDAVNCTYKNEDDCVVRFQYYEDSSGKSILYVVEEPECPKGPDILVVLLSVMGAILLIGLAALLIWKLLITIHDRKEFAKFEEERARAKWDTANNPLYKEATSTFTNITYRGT
Experimental: FIG. 13—[…] attachment of IMR-90 cells to vitronectin. The cells that bound were determined as described herein.
as §1, with “CHO cell line B2/v7 express the αvβ1 integrin (Zhang et al., J. Cell. Biol. 122:235–242 (1993), which is incorporated herein by reference). The vitronectin-binding integrins αvβ1 and αvβ3 were assayed using the cell line HT-29 and IMR-90, respectively (Koivunen et al., J. Biol. Chem. 268: 20205–20210 (1993)).” left out
Cell lines expressing fibronectin-binding integrins were used to determine peptide activities against these integrins in the cell attachment assay described by Ruoslahti et al., Meth. […] Bound cells were quantitated by staining with 0.1% amido black.

αvβ3 integrin [3] = target: T1, αvβ3 integrin; assay: Inhibition of peptide-displaying phage binding to αvβ3 integrin by synthetic peptides; parameters: The αvβ3, αvβ5 and α5β1 integrins were isolated from human placental extracts; from tissue; host or cells: human placenta
Description: (§2) In addition, most of the phage-binding activity in the αvβ3 preparation was captured into microliter wells coated with antibodies against the αv or β3 subunits as described previously (Koivunen et al., J. Biol. Chem., 268:20205–10 (1993). The αIIbβ3 integrin was isolated from outdated platelets (Pytela et al., Science, 231:1559–1562 (1986)).
(§3) Binding of individual cloned phage to integrins was studied in microliter wells as described in Koivunen et al., J. Cell. Biol., 124:373–380 (1994). Phage binding to α5β1 and αvβ3 were assayed in TBS buffer containing 1% BSA and 1 mM MnCl2 and binding to αvβ5 in the presence of 1 mM CaCl2. Phage that were bound were determined by their ability to infect F-pilus positive K91kan bacteria. Bacteria were grown overnight in microliter wells in the presence of tetracycline and the absorbance indicative of bacterial growth was read at 600 nm with an ELISA plate reader.
The ability of […] [SEQ ID NO:12] and CRGDC [SEQ ID NO:37] containing peptides to inhibit binding of CRGDCL-displaying [SEQ ID NO:7] phage to the microwells coated with αvβ3 integrin also was examined. CRGDCL-displaying [SEQ ID NO:7] phage were added to a well and either cyclic […] [SEQ ID NO:6] or cyclic […] [SEQ ID NO:5] was added to compete for binding. Binding was quantitated as described above.

α5β1 integrin [4] = target: T2, α5β1 integrin (Homo sapiens, UniProt P05556+P08648); assay: Inhibition of peptide-displaying phage binding to α5β1 integrin by synthetic peptides; conditions: for binding affinity for α5β1: high binding affinity defined as IC50 of 1×10^−7 M or less in a competitive binding assay
T2 construct: The αvβ3, αvβ5 and α5β1 integrins were isolated from human placental extracts; from tissue; host or cells: human placenta
T2 sequence (P08648 42-894 limits assumed): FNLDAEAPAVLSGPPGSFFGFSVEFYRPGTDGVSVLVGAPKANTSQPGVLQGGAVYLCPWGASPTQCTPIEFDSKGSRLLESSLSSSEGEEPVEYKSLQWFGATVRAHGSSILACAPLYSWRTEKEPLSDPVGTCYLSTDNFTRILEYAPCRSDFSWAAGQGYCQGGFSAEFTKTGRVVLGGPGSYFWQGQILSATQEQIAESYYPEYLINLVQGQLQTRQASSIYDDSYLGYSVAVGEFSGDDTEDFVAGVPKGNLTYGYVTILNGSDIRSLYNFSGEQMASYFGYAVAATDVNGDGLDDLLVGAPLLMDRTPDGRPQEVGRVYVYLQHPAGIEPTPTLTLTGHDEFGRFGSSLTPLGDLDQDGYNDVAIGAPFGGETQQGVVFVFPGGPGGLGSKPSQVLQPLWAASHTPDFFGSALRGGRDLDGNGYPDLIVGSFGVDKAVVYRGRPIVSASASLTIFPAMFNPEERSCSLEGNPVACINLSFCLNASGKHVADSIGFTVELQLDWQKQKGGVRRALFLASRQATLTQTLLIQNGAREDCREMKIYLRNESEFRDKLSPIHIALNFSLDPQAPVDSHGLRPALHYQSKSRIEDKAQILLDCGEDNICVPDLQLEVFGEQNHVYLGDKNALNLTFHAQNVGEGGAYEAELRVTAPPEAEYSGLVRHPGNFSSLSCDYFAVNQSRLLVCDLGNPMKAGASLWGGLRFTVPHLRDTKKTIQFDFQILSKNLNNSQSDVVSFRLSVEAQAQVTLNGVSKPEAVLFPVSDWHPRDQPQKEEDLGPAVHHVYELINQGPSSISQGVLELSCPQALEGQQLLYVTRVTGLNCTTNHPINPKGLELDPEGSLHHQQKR
T2 sequence (P08648 895-1049 partner limits assumed): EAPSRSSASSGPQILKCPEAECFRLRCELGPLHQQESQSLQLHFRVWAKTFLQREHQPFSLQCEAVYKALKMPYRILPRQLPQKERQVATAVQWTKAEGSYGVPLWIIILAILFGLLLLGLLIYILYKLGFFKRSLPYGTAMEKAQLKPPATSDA
T2 sequence (P05556 21-798): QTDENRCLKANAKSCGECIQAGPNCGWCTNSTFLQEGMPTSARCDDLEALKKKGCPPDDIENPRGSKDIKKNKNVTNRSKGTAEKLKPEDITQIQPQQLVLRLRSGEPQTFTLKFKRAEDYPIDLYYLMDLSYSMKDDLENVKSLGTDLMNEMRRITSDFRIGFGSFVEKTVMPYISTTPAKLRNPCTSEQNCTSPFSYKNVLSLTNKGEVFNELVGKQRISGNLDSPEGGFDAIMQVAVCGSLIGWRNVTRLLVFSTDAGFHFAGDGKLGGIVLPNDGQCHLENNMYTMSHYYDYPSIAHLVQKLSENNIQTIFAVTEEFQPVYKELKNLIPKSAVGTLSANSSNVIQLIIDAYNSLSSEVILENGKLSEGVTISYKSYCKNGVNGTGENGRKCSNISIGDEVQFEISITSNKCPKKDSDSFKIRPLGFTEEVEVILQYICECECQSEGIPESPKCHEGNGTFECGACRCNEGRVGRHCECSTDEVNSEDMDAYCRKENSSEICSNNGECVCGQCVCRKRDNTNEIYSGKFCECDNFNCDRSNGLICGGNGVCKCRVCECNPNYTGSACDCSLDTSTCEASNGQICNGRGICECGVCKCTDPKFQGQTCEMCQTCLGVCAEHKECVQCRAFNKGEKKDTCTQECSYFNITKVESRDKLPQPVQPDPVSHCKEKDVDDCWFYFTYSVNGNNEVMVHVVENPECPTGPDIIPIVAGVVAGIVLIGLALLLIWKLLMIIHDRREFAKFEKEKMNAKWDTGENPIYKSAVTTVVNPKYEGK
Experimental: Phage clone containing the RGDGW [SEQ ID NO:9] sequence was incubated for 1 hour in integrin-coated microliter wells in the presence of the competing peptides. After extensive washing, the phage remained bound were determined as described in Example XII.
as §2, §3
Relative affinities of the […] [SEQ ID NO:12] and CRGDC [SEQ ID NO:37] peptides were determined by inhibition of binding of peptide-displaying phage to α5β1 integrin. Peptide-displaying phage were constructed as described by Scott and Smith, Science 249:386–390 (1990) and Example IV. Microwell plates were coated with various integrins as described by Koivunen et al., J. Biol. Chem., 268:20205–10 (1993) and Example II.
The binding of […] [SEQ ID NO:12]-containing peptide ligands to α5β1 integrin was performed as follows. RRETAWA [SEQ ID NO:8]-displaying phage were incubated for 1 hour in the presence of various concentrations of the cyclic peptides containing […] [SEQ ID NO:12] and containing CRGDC [SEQ ID NO:37] in microliter wells coated with the α5β1 integrin. Binding was quantitated by adding K91kan bacteria directly to the wells and growing the bacteria overnight at room temperature (Smith and Scott, Meth. Enzymol., 217:228–257 (1993), which is incorporated herein by reference).
Additional peptide motifs were tested as follows. ELRGDGW-displaying [SEQ ID NO:4] phage were added together with various concentrations of the cyclic peptides containing […] [SEQ ID NO:12] and containing CRGDC [SEQ ID NO:37] into microliter wells coated with the α5β1 integrin, incubated for 1 hour at room temperature and binding to wells was quantitated.

Molecule: C[C@H](N)C(=O)N[C@H]1CSSC[C@@H](C(=O)NCC(=O)O)NC(=O)[C@H](Cc2ccccc2)NC(=O)[C@@H]2CSSC[C@H](NC(=O)[C@H](CC(=O)O)NC1=O)C(=O)N[C@@H](CCCNC(=N)N)C(=O)NCC(=O)N[C@@H](CC(=O)O)C(=O)N2 (H-ACDCRGDCFCG-OH; disulfide 2-10, 4-8)
- activity toward α5β1 compared to *CRGDC* (α5β1 integrin [1]; cell attachment to fibronectin): significantly decreased activity
- activity toward α5β1 compared to linear GRGDSP (α5β1 integrin [1]; cell attachment to fibronectin): only slightly better
- effectiveness relative to *CRGDC* in IMR-90 attachment to vitronectin (αvβ3 integrin [2]; more effective than *CRGDC*): 20 fold
- inhibition of phage binding to αvβ3 relative to *CRGDC* (αvβ3 integrin [3]; better than *CRGDC*): 5 fold

Molecule: A*CPSRLDSPC*G (ACPSRLDSPCG; disulfide 2-10 (inferred))
- inhibition of RGD phage binding to α5β1 (α5β1 integrin [4]; RGDGW phage, FIG. 9): no inhibition
- concentration at which inhibitory activity was shown (αvβ3 integrin [2]; vitronectin): higher than 1 mM
- affinity for αvβ3 (αvβ3 integrin [3]; phage binding experiments): low
- selectivity towards the αvβ3 integrin (αvβ3 integrin [3]; phage binding experiments): partial selectivity

Molecule: GACRRETAWACGA
- inhibition of binding of ELRGDGW-displaying phage to α5β1 integrin (α5β1 integrin [4]; ELRGDGW-displaying phage, CRRETAWAC compared with CRGDC, FIG. 2): approximately the same degree
- efficiency of inhibition of RRETAWA-displaying phage binding to α5β1 relative to CRGDC containing peptides (α5β1 integrin [4]; RRETAWA-displaying phage, comparator CRGDC, FIG. 4): at least 10 times
- binding affinity for α5β1 (α5β1 integrin [4]; listed as CRRETAWAC): high binding affinity
- binding affinity for α5β1 (α5β1 integrin [4]; listed as GA*CRRETAWAC*GA): high affinity
- inhibition of cell attachment to a 110 kDa fragment of fibronectin (α5β1 integrin [1]; 110 kDa fragment containing the cell attachment domain): inhibited
- inhibition of attachment of A375-M cells to fibronectin (α5β1 integrin [1]; A375-M cells (also express α4β1)): only partially inhibited
- efficiency at inhibiting binding to α5β1 compared with cyclic CRGDCL peptide (α5β1 integrin [1]; B2/α27 cells, fibronectin, FIG. 5): more efficient
- binding activity following reduction of the disulfide bond and alkylation of the cysteine residues (α5β1 integrin [1]; linearized vs cyclic peptide): greatly decreased
- reduction of activity after reduction and alkylation of the disulfide bond (α5β1 integrin [1]; linearized vs cyclic peptide): about 50 ×
- inhibition of binding of CRGDCL-displaying phage to integrin-coated wells (αvβ3 integrin [3]; CRGDCL-displaying phage, αvβ3-coated wells, FIG. 3 (result sentence prints α5β1)): ineffective
